Laboratory results published in patent US9840474B2, “Pyrimidine compounds and use as anti-cervical cancer thereof” (SICHUAN UNIVERSITY, priority 2014, dated 2017).
Read-outs that look alike come from different tables or passages of the source.

Key:
Format in all cases: cell-based
HPV16 E7 mRNA = assay: Real-time PCR of HPV16 E7 mRNA expression in Caski cells; conditions: for effect on HPV E7 mRNA in Caski cells / inhibitory activity on E7 compared with positive control cidofovir / E7 One independent tests (inhibitory rate) / E7 Two independent tests (inhibitory rate): Caski cells; for E7 One independent tests (inhibitory rate) / E7 Two independent tests (inhibitory rate) / inhibition at 0.2 µg/mL: 48 h; for E7 One independent tests (inhibitory rate): test one; for E7 Two independent tests (inhibitory rate): test two; for inhibition at 0.2 µg/mL: Human papillomavirus 16, Ca-Ski
Text: (§1) In order to investigate in vitro effects of CH01 and CH02 against cervical cancer and HPV16 viruses, in the experiment, the cytotoxicity of above compounds, together with their effects on HPV16 E6 and E7 mRNA, is investigated by culture with human cervical cancer cells (HPV16 positive). Structures of test compounds are shown as follows:
(§2) [Experimental Method] • 1. Cytotoxicity: MTT method was used, and Reed-Muench method was used to calculate indexes median toxic concentration (TC50) and maximum non-toxic concentation (TC0). • 2. HPV16 E6 and E7 mRNA: The cell culture was treated for 48 h at maximum non-toxic concentration, and then the culture was terminated. Total RNA in cells was extracted, and effects of test samples on HPV16 E6 and E7 mRNA were measured using Real-time PCR method.
(§3) Effects of Samples on Expression of HPV16 E6 mRNA and HPV16 E7 mRNA in Caski Cells

[1] = test system: human cervical carcinoma Caski cells; assay: MTT cytotoxicity / inhibition test of cervical cancer Caski cells; conditions: for OD: Caski cells, MTT; for IC50 value: cervical cancer Caski cells
Text: as §1, §2
[Experimental Result] • 1. Inhibition Test of Cervical Cancer Caski Cells

HPV16 E6 mRNA = assay: Real-time PCR of HPV16 E6 mRNA expression in Caski cells; conditions: for effect on HPV E6 mRNA in Caski cells / inhibitory activity on E6 compared with positive control cidofovir / E6 One independent tests (inhibitory rate) / E6 Two independent tests (inhibitory rate): Caski cells; for E6 One independent tests (inhibitory rate) / E6 Two independent tests (inhibitory rate) / inhibition at 0.2 µg/mL: 48 h; for E6 One independent tests (inhibitory rate): test one; for E6 Two independent tests (inhibitory rate): test two; for inhibition at 0.2 µg/mL: Human papillomavirus 16, Ca-Ski
Text: as §1, §2, §3

Molecule | effect on HPV E7 mRNA in Caski cells (HPV16 E7 mRNA) | inhibitory activity on E7 compared with positive control cidofovir (HPV16 E7 mRNA) | E7 One independent tests (inhibitory rate) (HPV16 E7 mRNA; 0.067 μg/ml) | E7 Two independent tests (inhibitory rate) (HPV16 E7 mRNA; 0.067 μg/ml) | E7 One independent tests (inhibitory rate) (HPV16 E7 mRNA; 0.2 μg/ml) | E7 Two independent tests (inhibitory rate) (HPV16 E7 mRNA; 0.2 μg/ml) | OD ([1]; 0.097656 μg/ml) | OD ([1]; 0.195313 μg/ml) | OD ([1]; 0.390625 μg/ml) | OD ([1]; 0.78125 μg/ml) | OD ([1]; 1.5625 μg/ml) | OD ([1]; 3.125 μg/ml) | OD ([1]; 6.25 μg/ml) | OD ([1]; 12.5 μg/ml) | OD ([1]; 25 μg/ml) | OD ([1]; 50 μg/ml) | OD ([1]; 100 μg/ml) | OD ([1]; 200 μg/ml) | IC50 value [1] | effect on HPV E6 mRNA in Caski cells (HPV16 E6 mRNA) | other results
4-(2-methoxybenzylamino)-5-formaldoxime-6-chloropyrimidine [CH02] | showed inhibitory effects | better inhibitory activity than the positive control cidofovir | 0.484 | 0.488 | 0.516 | 0.526 | 0.8357 | 0.78 | 0.4733 | 0.3837 | 0.313 | 0.2943 | 0.2727 | 0.2743 | 0.2803 | 0.3087 | 0.3757 | 0.5557 | about 0.4 μg/ml | showed inhibitory effects | inhibitory activity on E6 compared with positive control cidofovir (HPV16 E6 mRNA): better inhibitory activity than the positive control cidofovir; E6 One independent tests (inhibitory rate) (HPV16 E6 mRNA; 0.067 μg/ml): 0.461; E6 Two independent tests (inhibitory rate) (HPV16 E6 mRNA; 0.067 μg/ml): 0.481; E6 One independent tests (inhibitory rate) (HPV16 E6 mRNA; 0.2 μg/ml): 0.599; E6 Two independent tests (inhibitory rate) (HPV16 E6 mRNA; 0.2 μg/ml): 0.549
4-(4-tert-butylbenzylamino)-5-formaldoxime-6-chloropyrimidine [CH01] | showed inhibitory effects | better inhibitory activity than the positive control cidofovir | 0.488 | 0.455 | 0.484 | 0.449 | 0.8367 | 0.7847 | 0.6353 | 0.5667 | 0.488 | 0.4667 | 0.4117 | 0.3033 | 0.283 | 0.28 | 0.2967 | 0.4373 | about 1.5 μg/ml | showed inhibitory effects | inhibitory activity on E6 compared with positive control cidofovir (HPV16 E6 mRNA): better inhibitory activity than the positive control cidofovir; E6 One independent tests (inhibitory rate) (HPV16 E6 mRNA; 0.067 μg/ml): 0.489; E6 Two independent tests (inhibitory rate) (HPV16 E6 mRNA; 0.067 μg/ml): 0.494; E6 One independent tests (inhibitory rate) (HPV16 E6 mRNA; 0.2 μg/ml): 0.577; E6 Two independent tests (inhibitory rate) (HPV16 E6 mRNA; 0.2 μg/ml): 0.553
Nc1ccn(C[C@@H](CO)OCP(=O)(O)O)c(=O)n1 [cidofovir, reference compound] | – | – | – | – | – | – | – | – | – | – | – | – | – | – | – | – | – | – | – | – | inhibition at 0.2 µg/mL (HPV16 E7 mRNA; read-out: E7 One independent tests (inhibitory rate)): 32.1%; inhibition at 0.2 µg/mL (HPV16 E7 mRNA; read-out: E7 Two independent tests (inhibitory rate)): 32.4%; inhibition at 0.2 µg/mL (HPV16 E6 mRNA; read-out: E6 One independent tests (inhibitory rate)): 32.6%; inhibition at 0.2 µg/mL (HPV16 E6 mRNA; read-out: E6 Two independent tests (inhibitory rate)): 33.6%
